12 molecules from patent US8003660B2, “Modulators of muscarinic receptors” (Vertex Pharmaceuticals Incorporated, priority 2006, dated 2011) can be followed below.

What all share (assay type): cell-based
One assay has as its target T1, M1 muscarinic receptor (Homo sapiens, UniProt P11229).
T1 construct: expressed in transfected cells; host or cells: CHO (M1-CHO)
T1 sequence (P11229 1-460): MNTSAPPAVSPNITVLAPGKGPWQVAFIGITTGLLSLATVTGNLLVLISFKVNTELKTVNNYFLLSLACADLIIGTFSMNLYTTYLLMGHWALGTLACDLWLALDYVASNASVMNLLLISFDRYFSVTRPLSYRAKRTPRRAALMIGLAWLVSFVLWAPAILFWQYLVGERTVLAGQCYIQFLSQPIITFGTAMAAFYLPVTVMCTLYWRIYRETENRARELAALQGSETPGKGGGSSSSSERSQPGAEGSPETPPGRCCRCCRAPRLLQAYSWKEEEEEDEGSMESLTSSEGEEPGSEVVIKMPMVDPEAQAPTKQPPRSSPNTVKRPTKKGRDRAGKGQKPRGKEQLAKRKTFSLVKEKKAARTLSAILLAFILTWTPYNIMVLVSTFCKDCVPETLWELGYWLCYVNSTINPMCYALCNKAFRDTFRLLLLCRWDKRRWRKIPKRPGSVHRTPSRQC
Put plainly: Functional mobilization of intracellular calcium (FLIPR) in CHO cells expressing M1. Particulars: for M1 Activity: CHO cells expressing M1, FLIPR calcium assay; for Emax: CHO, 100% efficacy = maximum response obtained with the Carbachol control. A digest of the protocol:
(§1)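 Calcium flux is read on FLIPR over 60 sec at 488/540 nm in muscarinic-receptor CHO lines. Antagonist mode adds carbachol at EC80 after 15 min compound preincubation or with simultaneous co-application. Agonist mode adds compound alone. Cells carry Fluo-3 or Calcium 3 dye in probenecid-containing pH 7.4 buffer, 0.5% DMSO final.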

The next assay concerns the target T2, M4 muscarinic receptor (Homo sapiens, UniProt P08173).
T2 construct: expressed in transfected cells; host or cells: CHO (M4-CHO)
T2 sequence (P08173 1-479): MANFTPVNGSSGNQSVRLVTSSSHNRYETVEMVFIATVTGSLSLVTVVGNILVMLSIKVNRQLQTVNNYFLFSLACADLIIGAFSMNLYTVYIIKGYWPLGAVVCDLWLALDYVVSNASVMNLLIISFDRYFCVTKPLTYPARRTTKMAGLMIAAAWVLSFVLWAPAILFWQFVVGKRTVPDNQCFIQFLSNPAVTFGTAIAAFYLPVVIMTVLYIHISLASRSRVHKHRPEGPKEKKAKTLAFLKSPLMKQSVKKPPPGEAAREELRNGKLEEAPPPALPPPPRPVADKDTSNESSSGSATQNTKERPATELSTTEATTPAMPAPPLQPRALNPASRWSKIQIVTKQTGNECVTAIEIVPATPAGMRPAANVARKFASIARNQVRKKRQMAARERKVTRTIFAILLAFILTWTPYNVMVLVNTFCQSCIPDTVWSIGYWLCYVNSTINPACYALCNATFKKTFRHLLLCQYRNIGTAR
In words: Functional mobilization of intracellular calcium (FLIPR) in CHO cells expressing M4. Particulars: for M4 Activity: CHO cells expressing M4, FLIPR calcium assay; for Emax: CHO, 100% efficacy = maximum response obtained with the Carbachol control. A digest of the protocol: as §1

The target of a further assay is T3, M2 muscarinic receptor (Homo sapiens, UniProt P08172).
T3 construct: expressed in transfected cells; host or cells: CHO (M2-CHO)
T3 sequence (P08172 1-466): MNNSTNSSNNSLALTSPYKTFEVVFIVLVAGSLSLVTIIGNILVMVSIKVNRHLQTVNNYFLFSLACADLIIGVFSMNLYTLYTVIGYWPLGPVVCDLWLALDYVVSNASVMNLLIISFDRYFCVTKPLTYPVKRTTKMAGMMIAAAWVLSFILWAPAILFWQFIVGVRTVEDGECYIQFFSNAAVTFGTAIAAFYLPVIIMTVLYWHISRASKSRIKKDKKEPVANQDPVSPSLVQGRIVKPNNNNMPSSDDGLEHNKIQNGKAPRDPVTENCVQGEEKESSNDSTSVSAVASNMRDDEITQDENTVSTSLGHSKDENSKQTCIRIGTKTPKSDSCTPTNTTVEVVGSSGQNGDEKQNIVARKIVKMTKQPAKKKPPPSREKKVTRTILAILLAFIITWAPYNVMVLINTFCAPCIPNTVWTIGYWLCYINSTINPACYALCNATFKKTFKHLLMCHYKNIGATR
In words: Functional mobilization of intracellular calcium (FLIPR) in CHO cells expressing M2. Particulars: for M2 Activity: CHO cells expressing M2, FLIPR calcium assay; for Emax: CHO, 100% efficacy = maximum response obtained with the Carbachol control. The method, boiled down:
as §1
On the technique in general: Calcium assays in cells follow changes in intracellular calcium, usually with a dye or a luminescent sensor.

For another assay, the target named is T4, M3 muscarinic receptor (Homo sapiens, UniProt P20309).
T4 construct: expressed in transfected cells; host or cells: CHO (M3-CHO)
T4 sequence (P20309 whole entry): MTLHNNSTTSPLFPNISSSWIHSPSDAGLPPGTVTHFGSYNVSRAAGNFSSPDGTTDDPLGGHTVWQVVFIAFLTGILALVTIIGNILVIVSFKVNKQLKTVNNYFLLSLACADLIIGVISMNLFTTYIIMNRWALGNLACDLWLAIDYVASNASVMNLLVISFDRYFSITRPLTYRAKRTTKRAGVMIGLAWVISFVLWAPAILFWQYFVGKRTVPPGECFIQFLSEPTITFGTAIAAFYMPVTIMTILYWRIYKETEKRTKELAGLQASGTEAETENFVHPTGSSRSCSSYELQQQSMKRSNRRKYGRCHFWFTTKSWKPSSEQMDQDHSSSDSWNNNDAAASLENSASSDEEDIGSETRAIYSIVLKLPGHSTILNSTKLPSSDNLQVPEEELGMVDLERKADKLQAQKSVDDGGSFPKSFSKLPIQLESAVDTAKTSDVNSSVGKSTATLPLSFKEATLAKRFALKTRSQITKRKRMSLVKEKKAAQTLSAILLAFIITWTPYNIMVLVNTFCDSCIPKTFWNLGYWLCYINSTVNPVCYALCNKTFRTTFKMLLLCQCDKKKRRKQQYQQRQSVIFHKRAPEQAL
In words: Functional mobilization of intracellular calcium (FLIPR) in CHO cells expressing M3. The conditions noted are these: for M3 Activity: CHO cells expressing M3, FLIPR calcium assay; for Emax: CHO, 100% efficacy = maximum response obtained with the Carbachol control. A digest of the protocol: as §1

For `COc1cc2c(cc1OC)C1(CCN(C(=O)OC(C)(C)C)CC1)CC2=O` [compound 239], on M1 muscarinic receptor, the “M1 Activity” value is given as “+ (activity was measured to be greater than 5.0 μM)” and the Emax (commonly the maximal effect, on the per cent scale that the assay sets) was less than 25%. Further, at M4 muscarinic receptor, the “M4 Activity” value is given as “+ (activity was measured to be greater than 5.0 μM)” and the maximal effect (Emax) was less than 25%. Further, at M2 muscarinic receptor, the “M2 Activity” value is recorded as “+ (activity was measured to be greater than 5.0 μM)” and the maximal effect (Emax) was less than 25%. On M3 muscarinic receptor, the “M3 Activity” value is given as “+ (activity was measured to be greater than 5.0 μM)” and the Emax is less than 25%.
Take `CCNC(=O)CN1CCC2(CC1)C[C@H](NC(C)=O)c1ccccc12` [compound 241]: at M1 muscarinic receptor, the “M1 Activity” value is “+ (activity was measured to be greater than 5.0 μM)” and the maximal effect (Emax) was less than 25%. In addition, at M4 muscarinic receptor, the “M4 Activity” value was “+ (activity was measured to be greater than 5.0 μM)” and the maximum response (Emax) is less than 25%. At M2 muscarinic receptor, the “M2 Activity” value is “+ (activity was measured to be greater than 5.0 μM)” and the Emax was less than 25%. At M3 muscarinic receptor, the “M3 Activity” value was “+ (activity was measured to be greater than 5.0 μM)” and the Emax was less than 25%.
In the case of `C=CCCCN1CCC2(CC1)C[C@H](NC(C)=O)c1ccccc12` [compound 242], on M1 muscarinic receptor, the “M1 Activity” value is reported as “+ (activity was measured to be greater than 5.0 μM)” and the Emax was 25 to 100%. Besides, at M4 muscarinic receptor, the “M4 Activity” value is given as “++ (activity was measured to be from 2.0 μM to 5.0 μM)” and the Emax lay within 25 to 100%. Moreover, at M2 muscarinic receptor, the “M2 Activity” value is recorded as “+ (activity was measured to be greater than 5.0 μM)” and the maximal effect (Emax) was less than 25%. On M3 muscarinic receptor, the “M3 Activity” value was “+ (activity was measured to be greater than 5.0 μM)” and the Emax is less than 25%.
For `CC(=O)N[C@H]1CC2(CCN(CC(C)(C)C)CC2)c2ccccc21` [compound 243], on M1 muscarinic receptor, the “M1 Activity” value is “+ (activity was measured to be greater than 5.0 μM)” and the Emax lay in the range of 25 to 100%. For the same molecule, at M4 muscarinic receptor, the “M4 Activity” value was “+++ (activity was measured to be less than 2.0 μM)” and the Emax lay within 25 to 100%. In addition, at M2 muscarinic receptor, the “M2 Activity” value was “+ (activity was measured to be greater than 5.0 μM)” and the Emax was 25 to 100%. Besides, at M3 muscarinic receptor, the “M3 Activity” value is on record as “+ (activity was measured to be greater than 5.0 μM)” and the Emax was less than 25%.
Consider `CC(=O)N[C@H]1CC2(CCN(CCC(C)(C)C)CC2)c2ccccc21` [compound 244], for which, at M1 muscarinic receptor, the “M1 Activity” value was “+++ (activity was measured to be less than 2.0 μM)” and the Emax was 25 to 100%. Also, at M4 muscarinic receptor, the “M4 Activity” value was “+++ (activity was measured to be less than 2.0 μM)” and the maximal response (Emax) fell in the range of 25 to 100%. On M2 muscarinic receptor, the “M2 Activity” value is on record as “+ (activity was measured to be greater than 5.0 μM)” and the Emax was less than 25%. Besides, on M3 muscarinic receptor, the “M3 Activity” value is reported as “+ (activity was measured to be greater than 5.0 μM)” and the Emax was less than 25%.
`CC(C)(C)CN1CCC2(CC1)CC(C(=O)O)c1ccccc12` (stereo not drawn) [compound 246]: on M1 muscarinic receptor, the “M1 Activity” value was “+ (activity was measured to be greater than 5.0 μM)” and the Emax is less than 25%. Also, on M4 muscarinic receptor, the “M4 Activity” value is given as “+ (activity was measured to be greater than 5.0 μM)” and the Emax is less than 25%. Moreover, at M2 muscarinic receptor, the “M2 Activity” value was “+ (activity was measured to be greater than 5.0 μM)” and the maximal response (Emax) was less than 25%. Besides, on M3 muscarinic receptor, the “M3 Activity” value is listed as “+ (activity was measured to be greater than 5.0 μM)” and the Emax was less than 25%.
With `CC(C)CCN1CCC2(CC1)C[C@H](NC(=O)C1CC1)c1ccccc12` [compound 247], at M1 muscarinic receptor, the “M1 Activity” value is recorded as “+ (activity was measured to be greater than 5.0 μM)” and the Emax was 25 to 100%. Moreover, at M4 muscarinic receptor, the “M4 Activity” value is listed as “+ (activity was measured to be greater than 5.0 μM)” and the Emax was less than 25%. For the same molecule, at M2 muscarinic receptor, the “M2 Activity” value was “+ (activity was measured to be greater than 5.0 μM)” and the Emax is less than 25%. For the same molecule, on M3 muscarinic receptor, the “M3 Activity” value was “+ (activity was measured to be greater than 5.0 μM)” and the Emax is less than 25%.
In the case of `CC/C=C\CCCCCCN1CCC2(CC1)C[C@H](NC(C)=O)c1ccccc12` [compound 248], at M1 muscarinic receptor, the “M1 Activity” value was “++ (activity was measured to be from 2.0 μM to 5.0 μM)” and the maximal response (Emax) lay in the range of 25 to 100%. On M4 muscarinic receptor, the “M4 Activity” value is recorded as “+ (activity was measured to be greater than 5.0 μM)” and the maximal effect (Emax) lay in the range of 25 to 100%. Also, at M2 muscarinic receptor, the “M2 Activity” value is recorded as “+ (activity was measured to be greater than 5.0 μM)” and the maximal effect (Emax) was less than 25%. Moreover, on M3 muscarinic receptor, the “M3 Activity” value is listed as “+ (activity was measured to be greater than 5.0 μM)” and the maximal effect (Emax) was less than 25%.
Take `CC(C)(C)CCN1CCC2(CC1)CC(C(=O)O)c1ccccc12` (stereo not drawn) [compound 250]: at M1 muscarinic receptor, the “M1 Activity” value is “+ (activity was measured to be greater than 5.0 μM)” and the maximal effect (Emax) is 25 to 100%. On M4 muscarinic receptor, the “M4 Activity” value is recorded as “+ (activity was measured to be greater than 5.0 μM)” and the maximal response (Emax) was 25 to 100%. Moreover, on M2 muscarinic receptor, the “M2 Activity” value is “+ (activity was measured to be greater than 5.0 μM)” and the Emax is less than 25%. For the same molecule, at M3 muscarinic receptor, the “M3 Activity” value was “+ (activity was measured to be greater than 5.0 μM)” and the maximum response (Emax) is less than 25%.
Regarding `CC(C)(C)CCN1CCC2(CC1)C[C@H](NC(=O)N1CCCC1)c1ccccc12` [compound 251], on M1 muscarinic receptor, the “M1 Activity” value is “+ (activity was measured to be greater than 5.0 μM)” and the Emax is less than 25%. In addition, at M4 muscarinic receptor, the “M4 Activity” value is listed as “+ (activity was measured to be greater than 5.0 μM)” and the Emax was less than 25%. At M2 muscarinic receptor, the “M2 Activity” value is on record as “+ (activity was measured to be greater than 5.0 μM)” and the maximal effect (Emax) was less than 25%. In addition, on M3 muscarinic receptor, the “M3 Activity” value is “+ (activity was measured to be greater than 5.0 μM)” and the Emax was less than 25%.
Regarding `Cc1ccc2c(c1)C(=O)CC21CCN(C(=O)OC(C)(C)C)CC1` [compound 252], on M1 muscarinic receptor, the “M1 Activity” value is “+ (activity was measured to be greater than 5.0 μM)” and the Emax is less than 25%. Besides, at M4 muscarinic receptor, the “M4 Activity” value was “+ (activity was measured to be greater than 5.0 μM)” and the maximal response (Emax) was less than 25%. At M2 muscarinic receptor, the “M2 Activity” value is “+ (activity was measured to be greater than 5.0 μM)” and the Emax was less than 25%. Besides, on M3 muscarinic receptor, the “M3 Activity” value was “+ (activity was measured to be greater than 5.0 μM)” and the maximal response (Emax) was less than 25%.
In the case of `CC(=O)N[C@H]1CC2(CCN(CCC(C)(C)C)CC2)c2ccc(C)cc21` [compound 253], on M1 muscarinic receptor, the “M1 Activity” value is reported as “+ (activity was measured to be greater than 5.0 μM)” and the Emax was less than 25%. Moreover, at M4 muscarinic receptor, the “M4 Activity” value was “+ (activity was measured to be greater than 5.0 μM)” and the maximal response (Emax) fell in the range of 25 to 100%. On M2 muscarinic receptor, the “M2 Activity” value is “+ (activity was measured to be greater than 5.0 μM)” and the Emax was less than 25%. On M3 muscarinic receptor, the “M3 Activity” value is recorded as “+ (activity was measured to be greater than 5.0 μM)” and the maximum response (Emax) is less than 25%.
